Measurements taken from patent US9556165B2 (priority 2012, dated 2017).
≈ marks a conversion by molar mass, not a printed value. Where two headings read alike, the source gives them in different places.

Assays:
Type in all cases: cell-based
A. baumannii ATCC15308 = test: MIC determination, broth microdilution (CLSI); conditions: Acinetobacter baumannii, ATCC15308, strain 9
Bacteria = test: MIC determination in combination with β-lactamase inhibitors (constant 4 μg/mL)
E. coli J62-TEM-3 = test: MIC determination, broth microdilution (CLSI); conditions: Escherichia coli, J62TEM3, read-out: MIC strain 18 (E. coli J62-TEM-3), strain 18; broth microdilution
H. influenzae ATCC 49247 = test: MIC determination, broth microdilution (CLSI); conditions: Haemophilus influenzae, ATCC49247, strain 12; broth microdilution; read-out: MIC strain 12 (H. influenzae ATCC 49247)
S. aureus 133 = test: MIC determination, broth microdilution (CLSI)
S. maltophilia ICB7569 = test: MIC determination, broth microdilution (CLSI); conditions: Stenotrophomonas maltophilia, ICB7569, strain 10
M. morganii 126/3048 = test: MIC determination, broth microdilution (CLSI); conditions: Morganella morganii, 126/3048, strain 5
C. perfringens DSM756 = test: microbe, parasite or virus in culture; conditions: Clostridium perfringens, DSM756, read-out: MIC strain 16 (C. perfringens DSM756), strain 16; broth microdilution
B. fragilis 6688 = test: MIC determination, broth microdilution (CLSI); conditions: Bacteroides fragilis, 6688, strain 15; broth microdilution; read-out: MIC strain 15 (B. fragilis 6688)
E. coli ATCC25922 = test: MIC determination, broth microdilution (CLSI); conditions: Escherichia coli, ATCC25922, strain 1
C. freundii K21/3034 = test: MIC determination, broth microdilution (CLSI); conditions: Citrobacter freundii, K21/3034, strain 4
P. aeruginosa PAO1 = test: MIC determination, broth microdilution (CLSI); conditions: Pseudomonas aeruginosa, PAO1, strain 6
E. coli J62 = test: MIC determination, broth microdilution (CLSI); conditions: Escherichia coli, J62, strain 17; broth microdilution; read-out: MIC strain 17 (E. coli J62)
[1] = tested on: P. aeruginosa 2297-con (AmpC derepressed); test: MIC determination, broth microdilution (CLSI); conditions: Pseudomonas aeruginosa, read-out: strain 8 MIC, strain 8
K. pneumoniae 60 = test: MIC determination, broth microdilution (CLSI); conditions: Klebsiella pneumoniae, 60, strain 2
S. pneumoniae 113 = test: MIC determination, broth microdilution (CLSI); conditions: Streptococcus pneumoniae, 113, strain 13; broth microdilution; read-out: MIC strain 13 (S. pneumoniae 113)
[2] = tested on: P. aeruginosa 2297 (AmpC wt); test: MIC determination, broth microdilution (CLSI); conditions: Pseudomonas aeruginosa, strain 7
E. cloacae 34654 = test: MIC determination, broth microdilution (CLSI); conditions: Enterobacter cloacae, 34654, strain 3
[3] = Staphylococcus aureus, 133, strain 11, read-out: strain 11 MIC
[4] = Staphylococcus aureus, 133, strain 14, broth microdilution, read-out: MIC strain 14 (S. aureus 133)

With `CC1(C)[C@H](NC(=O)/C(=N\O[C@@H](COc2ccc(C(=N)NCCNc3ncccn3)cc2)C(=O)O)c2csc(N)n2)C(=O)N1OS(=O)(=O)O` [Example 110, (2S)-2-({[(1Z)-1-(2-Amino-1,3-thiazol-4-yl)-2-{[(3S)-2,2-dimethyl-4-oxo-1-(sulfooxy)azetidin-3-yl]amino}-2-oxoethylidene]amino}oxy)-3-(4-{N-[2-(pyrimidin-2-ylami-no)ethyl]carbamimidoyl}phenoxy)propanoic acid] the MIC (A. baumannii ATCC15308) was 32 µg/mL (≈ 45.3 µM), the “MIC strain 19 (E. coli J62-TEM-3 + 4 μg/mL clavulanic acid)” value (Bacteria) was 0.5 µg/mL and the “MIC strain 20 (E. coli J62-TEM-3 + 4 μg/mL sulbactam)” value (Bacteria) was 0.5 µg/mL. The “MIC strain 21 (E. coli J62-TEM-3 + 4 μg/mL tazobactam)” value (Bacteria) was 0.5 µg/mL, the MIC (E. coli J62-TEM-3) was 32 µg/mL (≈ 45.3 µM) and the MIC (H. influenzae ATCC 49247) was at most 0.063 µg/mL. It also gave an MIC (S. aureus 133; [3]) of at most 0.063 µg/mL, an MIC (S. maltophilia ICB7569) of 8 µg/mL (≈ 11.3 µM) and an MIC (M. morganii 126/3048) of 0.25 µg/mL (≈ 0.354 µM). It also gave an MIC (C. perfringens DSM756) of 8 µg/mL (≈ 11.3 µM), an MIC (B. fragilis 6688) of 16 µg/mL (≈ 22.6 µM) and an MIC (E. coli ATCC25922) of 0.5 µg/mL (≈ 0.707 µM). For the same compound, the MIC (C. freundii K21/3034) was 0.5 µg/mL (≈ 0.707 µM), the MIC (P. aeruginosa PAO1) was 8 µg/mL (≈ 11.3 µM) and the MIC (E. coli J62) was 1 µg/mL (≈ 1.41 µM). It also gave an MIC [1] of 16 µg/mL (≈ 22.6 µM), an MIC (K. pneumoniae 60) of 1 µg/mL (≈ 1.41 µM) and an MIC (S. pneumoniae 113) of 0.25 µg/mL (≈ 0.354 µM). The MIC [2] was 8 µg/mL (≈ 11.3 µM) and the MIC (E. cloacae 34654) was 1 µg/mL (≈ 1.41 µM).

`CC1(C)[C@H](NC(=O)/C(=N\OCCOc2ccc(C(=N)N[C@H](CN)CO)cc2)c2csc(N)n2)C(=O)N1OS(=O)(=O)O` [Example 85, (2Z)-2-{[2-(4-{N-[(2R)-1-Amino-3-hydroxypropan-2-yl]carbamimidoyl}phenoxy)ethoxy]imino}-2-(2-amino-1,3-thiazol-4-yl)-N-[(3S)-2,2-dimethyl-4-oxo-1-(sulfooxy)azetidin-3-yl]ethanamide] was tested, and the MIC (A. baumannii ATCC15308) was 2 µg/mL (≈ 3.25 µM), the “MIC strain 19 (E. coli J62-TEM-3 + 4 μg/mL clavulanic acid)” value (Bacteria) was 0.25 µg/mL and the “MIC strain 20 (E. coli J62-TEM-3 + 4 μg/mL sulbactam)” value (Bacteria) was 0.25 µg/mL. The “MIC strain 21 (E. coli J62-TEM-3 + 4 μg/mL tazobactam)” value (Bacteria) was 0.5 µg/mL, the MIC (E. coli J62-TEM-3) was 8 µg/mL (≈ 13 µM) and the MIC (H. influenzae ATCC 49247) was at most 0.063 µg/mL. The MIC (S. aureus 133; [3]) was at most 0.063 µg/mL, the MIC (S. aureus 133; [4]) was 8 µg/mL (≈ 13 µM) and the MIC (S. maltophilia ICB7569) was 32 µg/mL (≈ 52.1 µM). The MIC (M. morganii 126/3048) was 0.25 µg/mL (≈ 0.407 µM), the MIC (C. perfringens DSM756) was 4 µg/mL (≈ 6.51 µM) and the MIC (B. fragilis 6688) was 4 µg/mL (≈ 6.51 µM). The MIC (E. coli ATCC25922) was 0.25 µg/mL (≈ 0.407 µM), the MIC (C. freundii K21/3034) was 0.25 µg/mL (≈ 0.407 µM) and the MIC (P. aeruginosa PAO1) was 4 µg/mL (≈ 6.51 µM). It also gave an MIC (E. coli J62) of 0.5 µg/mL (≈ 0.813 µM), an MIC [1] of 8 µg/mL (≈ 13 µM) and an MIC (K. pneumoniae 60) of 0.5 µg/mL (≈ 0.813 µM). The MIC (S. pneumoniae 113) was at most 0.063 µg/mL, the MIC [2] was 8 µg/mL (≈ 13 µM) and the MIC (E. cloacae 34654) was 0.5 µg/mL (≈ 0.813 µM).

In the case of `CC1(C)[C@H](NC(=O)/C(=N\OCc2ccc(C(=N)N)cc2)c2csc(N)n2)C(=O)N1OS(=O)(=O)O` [Example 57, (2Z)-2-(2-Amino-1,3-thiazol-4-yl)-2-{[(4-carbamimidoylbenzyl)oxy]imino}-N-[(3S)-2,2-dimethyl-4-oxo-1-(sulfooxy)azetidin-3-yl]ethanamide], the MIC (A. baumannii ATCC15308) is reported as 2 µg/mL (≈ 3.91 µM), the “MIC strain 19 (E. coli J62-TEM-3 + 4 μg/mL clavulanic acid)” value (Bacteria) is reported as 1 µg/mL and the “MIC strain 20 (E. coli J62-TEM-3 + 4 μg/mL sulbactam)” value (Bacteria) is reported as 1 µg/mL. For the same compound, the “MIC strain 21 (E. coli J62-TEM-3 + 4 μg/mL tazobactam)” value (Bacteria) was 2 µg/mL, the MIC (E. coli J62-TEM-3) was 32 µg/mL (≈ 62.6 µM) and the MIC (H. influenzae ATCC 49247) was 0.125 µg/mL (≈ 0.244 µM). The MIC (S. aureus 133; [3]) was at most 0.063 µg/mL, the MIC (S. aureus 133; [4]) was 4 µg/mL (≈ 7.82 µM) and the MIC (S. maltophilia ICB7569) was 32 µg/mL (≈ 62.6 µM). For the same compound, the MIC (M. morganii 126/3048) was 1 µg/mL (≈ 1.95 µM), the MIC (C. perfringens DSM756) was 2 µg/mL (≈ 3.91 µM) and the MIC (B. fragilis 6688) was 1 µg/mL (≈ 1.95 µM). The MIC (E. coli ATCC25922) was 1 µg/mL (≈ 1.95 µM), the MIC (C. freundii K21/3034) was 1 µg/mL (≈ 1.95 µM) and the MIC (P. aeruginosa PAO1) was 32 µg/mL (≈ 62.6 µM). The MIC (E. coli J62) was 2 µg/mL (≈ 3.91 µM), the MIC [1] was 16 µg/mL (≈ 31.3 µM) and the MIC (K. pneumoniae 60) was 2 µg/mL (≈ 3.91 µM). It also gave an MIC (S. pneumoniae 113) of at most 0.063 µg/mL, an MIC [2] of 32 µg/mL (≈ 62.6 µM) and an MIC (E. cloacae 34654) of 2 µg/mL (≈ 3.91 µM).

`CC1(C)[C@H](NC(=O)/C(=N\OC(COc2ccc(C(=N)NC3CCCNC3)cc2)C(=O)O)c2csc(N)n2)C(=O)N1OS(=O)(=O)O` (stereo in doubt) [Example 89, (2R)-2-({[(1Z)-1-(2-Amino-1,3-thiazol-4-yl)-2-{[(3S)-2,2-dimethyl-4-oxo-1-(sulfooxy)-azetidin-3-yl]amino}-2-oxoethylidene]amino}oxy)-3-(4-{N-[(3R)-piperidin-3-yl]carbamimidoyl}phenoxy)propanoic acid] was tested, and the MIC (A. baumannii ATCC15308) was 1 µg/mL (≈ 1.5 µM), the “MIC strain 19 (E. coli J62-TEM-3 + 4 μg/mL clavulanic acid)” value (Bacteria) was “≦0.063 mg/L” and the “MIC strain 20 (E. coli J62-TEM-3 + 4 μg/mL sulbactam)” value (Bacteria) was “≦0.063 mg/L”. For the same compound, the “MIC strain 21 (E. coli J62-TEM-3 + 4 μg/mL tazobactam)” value (Bacteria) was 0.125 µg/mL, the MIC (E. coli J62-TEM-3) was 4 µg/mL (≈ 5.98 µM) and the MIC (H. influenzae ATCC 49247) was at most 0.063 µg/mL. It also gave an MIC (S. aureus 133; [4]) of 32 µg/mL (≈ 47.9 µM), an MIC (S. maltophilia ICB7569) of 4 µg/mL (≈ 5.98 µM) and an MIC (M. morganii 126/3048) of at most 0.063 µg/mL. The MIC (C. perfringens DSM756) was 1 µg/mL (≈ 1.5 µM), the MIC (B. fragilis 6688) was 8 µg/mL (≈ 12 µM) and the MIC (E. coli ATCC25922) was 0.125 µg/mL (≈ 0.187 µM). For the same compound, the MIC (C. freundii K21/3034) was 0.125 µg/mL (≈ 0.187 µM), the MIC (P. aeruginosa PAO1) was 1 µg/mL (≈ 1.5 µM) and the MIC (E. coli J62) was 0.125 µg/mL (≈ 0.187 µM). The MIC [1] was 1 µg/mL (≈ 1.5 µM), the MIC (K. pneumoniae 60) was 0.25 µg/mL (≈ 0.374 µM) and the MIC (S. pneumoniae 113) was 0.5 µg/mL (≈ 0.748 µM). For the same compound, the MIC [2] was 1 µg/mL (≈ 1.5 µM) and the MIC (E. cloacae 34654) was 0.125 µg/mL (≈ 0.187 µM).
